Measurements from patent US20180353489A1, “Antibacterial Pharmaceutical Combination and Method for Treating Gram-Negative Bacteria Infections” (TENNOR THERAPEUTICS (SUZHOU) LIMITED, priority 2016, published 2018).
Where two headings read alike, the source gives them in different places.

How the values were obtained:
[1] = test system: Escherichia coli ATCC 25922; assay: Checkerboard broth microdilution MIC test; assay type: cell-based
Text: (§1) A standard 96-well plate checkerboard test platform for the determination of Minimum Inhibitory Concentration (MIC) and Minimum Bactericidal Concentration (MBC) as endpoints is used for the test of the antibacterial activity of the pharmaceutical combination in vitro. Escherichia coli ATCC 25922 strain is used as the representative strain of Gram-negative bacteria in initial investigations. The correlation between the observed results and the major Gram-negative bacteria in hospital—Pseudomonas aeruginosa, Klebsiella pneumoniae, Acinetobacter baumannii and Stenotrophomonas maltophilia—is assessed by a similar method.
Escherichia coli ATCC 25922 is a quality control strain for MIC testing as recommended by the Clinical and Laboratory Standards Institute (CLSI), which was obtained originally from the American Type Culture Collection (ATCC) repository and was used as a model of Gram-negative pathogen described herein. Other Gram-negative bacteria strains, including two strains of Pseudomonas aeruginosa, two strains of Klebsiella pneumoniae, Acinetobacter baumannii and Stenotrophomonas maltophilia, were also obtained from ATCC.
Minimum inhibitory concentration (MIC) endpoints of the combination of TNP-2092 and polymyxin B or E were determined by the two-agent checkerboard assay method based on the CLSI broth microdilution susceptibility method. To obtain a 96-well plate for each pharmaceutical combination, two separate intermediate dilution plates were prepared as described. A sufficient volume of a standard cell inoculum of ˜5×10^5 CFU/mL was prepared in cation adjusted Mueller Hinton broth with 0.002% (vol:vol) polysorbate-80 using the direct colony suspension method. […] The “destination MIC test plates” were then incubated statically at 35° C. for 18-24 h and the MIC of each agent alone or in combination was read visually.
(§2) In vitro fractional inhibitory concentration (FIC) was calculated using the following formula: […]

[2] = test system: Escherichia coli ATCC 25922; assay: Checkerboard MBC test; assay type: cell-based; conditions: for MBC99.9/MIC / MBC99.9: used separately
Text: as §1
Minimum inhibitory concentration (MIC) endpoints of the combination of TNP-2092 and polymyxin B or E were determined by the two-agent checkerboard assay method based on the CLSI broth microdilution susceptibility method. To obtain a 96-well plate for each pharmaceutical combination, two separate intermediate dilution plates were prepared as described. A sufficient volume of a standard cell inoculum of ˜5×10^5 CFU/mL was prepared in cation adjusted Mueller Hinton broth with 0.002% (vol:vol) polysorbate-80 using the direct colony suspension method. 0.2 mL of the above suspension was added to the wells in the first column of a first 96-well plate (ID-1), and 0.1 mL of the suspension was added to all remaining wells. 0.2 mL of the same cell inoculum suspension was added to the wells in the first row of a second plate (ID-2), and 0.1 mL of suspension was added to all the remaining wells. An appropriately concentrated drug stock “compound-1” (representing one of the two drugs to be tested in the combination) was added to each well in the first column of the plate ID-1. This was then diluted serially two-fold across the plate, changing tips at each transfer, until column 11 was reached. From column 11, 0.1 mL was removed and discarded and column 12 contains only cell inoculum and no drug. Next, an appropriately concentrated drug stock “Compound 2” (representing the second of the two agents to be tested in the combination) was then diluted into each well of row 1 in plate ID2. This was then diluted serially two-fold down the plate, changing tips at each transfer, until row 7 was reached. 0.1 mL was removed from row 7 and discarded and row 8 contains only cell inoculum and no drug. Finally, 0.05 mL was transferred from both ID1 and ID2 into a third 96 well “destination MIC test plate” (see FIG. 1). […] Column 12 is used to call the MIC of compound 2 alone and row 8 is used to call the MIC of compound 1 when tested alone. Note that the intersection of row 8 and column 12 contains no drug and serves as the growth control. The “destination MIC test plates” were then incubated statically at 35° C. for 18-24 h and the MIC of each agent alone or in combination was read visually.
For minimum bactericidal concentration (MBC) endpoints, 0.008 mL portions of each well, after MICs were called, were transferred from the MIC test plates by an automatic sampler to a charcoal agar omni recipient plate. Drops were allowed to air dry in a biological cabinet and the plates incubated inverted for 18-24 h a 35° C. The MBC was scored as the lowest consecutive antimicrobial drug concentration required to kill ≥99.9% of viable input test organisms in 18-24 h, or ≤5 CFU remaining per 0.008 mL drop
as §2
FIC (Fractional inhibitory concentration) or FBC (fractional bactericidal concentration) results were interpreted as synergistic, additive, indifferent, or antagonistic. In cases where no endpoint was observed and the MIC/MBC could not be called, then for the purpose of algebraic calculations, the endpoint was arbitrarily assumed to be one dilution greater than the tested range

| Compound | MIC ([1]; ATCC25922, used separately, read-out: MIC) | MBC ([2]; ATCC25922, used separately, read-out: MBC99.9) | MBC99.9/MIC [2] | MIC ([1]; used separately) | MBC99.9 [2] |
| --- | --- | --- | --- | --- | --- |
| CO[C@H]1/C=C/O[C@@]2(C)Oc3c(C)c(O)c4c(O)c(c(/C=N/N5CCC(N(C)C6([C@@H]7CCN(c8c(F)cn9c(=O)c(C(=O)O)cc(C%10CC%10)c9c8C)C7)CC6)CC5)c(O)c4c3C2=O)NC(=O)/C(C)=C\C=C\[C@H](C)[C@H](O)[C@@H](C)[C@@H](O)[C@@H](C)[C@H](OC(C)=O)[C@@H]1C [TNP-2092] | 0.25 µg/mL | 0.25 µg/mL | 1 |  |  |
| polymyxin B |  |  | 4 | 2 µg/mL | 8 µg/mL |
| polymyxin E |  |  | 8 | 1 µg/mL | 8 µg/mL |
